Here are results for 1 compound from patent US8916499B2, “Herbicidal compositions comprising 4-amino-3-chloro-5-fluoro-6-(4-chloro-2-fluoro-3-methoxyphenyl) pyridine-2-carboxylic acid or a derivative thereof and a protoporphyrinogen oxidase inhibitor” (Dow AgroSciences LLC, priority 2012, dated 2014).

One assay deals with ECHCG. The assay can be described thus: Postemergence foliar-applied weed control, direct seeded rice, greenhouse (Example I). The format is in vivo, Echinochloa crusgalli (L.) Beauv.
A further assay concerns PAPRH. The experiment in a line: Postemergence foliar herbicidal activity of mixtures in cereal crops, greenhouse (Example III). The format is in vivo, Papaver rhoeas L. The conditions noted are these: foliar-applied. As to the method:
Seeds of the desired test plant species were planted in Sun Gro MetroMix® 306 planting mixture, which typically has a pH of 6.0 to 6.8 and an organic matter content of about 30 percent, in plastic pots with a surface area of 103.2 square centimeters (cm^2). When required to ensure good germination and healthy plants, a fungicide treatment and/or other chemical or physical treatment was applied. The plants were grown for 7-36 days in a greenhouse with an approximate 14 hour photoperiod which was maintained at about 18° C. during the day and about 17° C. during the night. Nutrients and water were added on a regular basis and supplemental lighting was provided with overhead metal halide 1000-Watt lamps as necessary. The plants were employed for testing when they reached the second or third true leaf stage.
Treatments consisted of the benzyl ester of 4-amino-3-chloro-5-fluoro-6-(4-chloro-2-fluoro-3-methoxy-phenyl)pyridine-2-carboxylic acid (Compound A), formulated as an SC, a second cereal herbicide alone and then both in combination.
Other herbicidal components were applied on an active ingredient basis and included PSII-inhibiting herbicides.
Measured aliquots of benzyl ester of 4-amino-3-chloro-5-fluoro-6-(4-chloro-2-fluoro-3-methoxy-phenyl)pyridine-2-carboxylic acid (Compound A) were placed in 25 milliliter (mL) glass vials and diluted in a volume of 1.25% (v/v) Agri-Dex® crop oil concentrate to obtain stock solutions. Compound requirements are based upon a 12 mL application volume at a rate of 187 liters per hectare (L/ha). Spray solutions of the second cereal herbicide and experimental compound mixtures were prepared by adding the stock solutions to the appropriate amount of dilution solution to form 12 mL spray solution with active ingredients in two- and three-way combinations. Formulated compounds were applied to the plant material with an overhead Mandel track sprayer equipped with an 8002E nozzle calibrated to deliver 187 L/ha over an application area of 0.503 square meters (m^2) at a spray height of 18 inches (46 cm) above average plant canopy. Control plants were sprayed in the same manner with the solvent blank.
The treated plants and control plants were placed in a greenhouse as described above and watered by sub-irrigation to prevent wash-off of the test compounds. After 20-22 days, the condition of the test plants as compared with that of the control plants was determined visually and scored on a scale of 0 to 100 percent where 0 corresponds to no injury and 100 corresponds to complete kill.
Colby's equation was used to determine the herbicidal effects expected from the mixtures (Colby, S. R. 1967. Calculation of the synergistic and antagonistic response of herbicide combinations. Weeds 15:20-22.).
The following equation was used to calculate the expected activity of mixtures containing two active ingredients, A and B: Expected=A+B−(A×B/100)

In the next assay the test system is SCPMA. The assay can be described thus: In-water applied weed control, transplanted paddy rice, greenhouse (Example II). The format is in vivo.
The test system of the next assay is XANST. The experiment in a line: Pre-emergence soil-applied weed control, greenhouse (Example IV). The format is in vivo, Xanthium strumarium L. An excerpt:
(§1) Seeds or nutlets of the desired test plant species were planted in a soil matrix prepared by mixing a loam soil (32 percent silt, 23 percent clay, and 45 percent sand, with a pH of about 6.5 and an organic matter content of about 1.9 percent) and calcareous grit in an 80 to 20 ratio. The soil matrix was contained in plastic pots with a volume of 1 quart and a surface area of 83.6 square centimeters (cm^2).
(§2) Treatments consisted of the benzyl ester of 4-amino-3-chloro-5-fluoro-6-(4-chloro-2-fluoro-3-methoxy-phenyl)pyridine-2-carboxylic acid (compound A) formulated as an SC (suspension concentrate) and various herbicidal components alone and in combination. Forms of compound A were applied on an acid equivalent basis.
(§3) Other herbicidal components were applied on an acid equivalent or active ingredient basis and included the protoporphyrinogen oxidase (PPO)-inhibiting herbicides, flumioxazin formulated as Payload® and oxadiazon formulated as Ronstar® 50W.
(§4) Treatment requirements were calculated based upon the rates being tested, the concentration of active ingredient or acid equivalent in the formulation, and a 12 mL application volume at a rate of 187 L/ha.
For treatments comprised of formulated compounds, measured amounts of compounds were placed individually in 25 mL glass vials and diluted in a volume of 1.25% (v/v) Agri-Dex® crop oil concentrate (COC) to obtain 12× stock solutions. […] Application solutions were prepared by adding an appropriate amount of each stock solution (e.g., 1 mL) and diluted to the appropriate final concentrations with the addition of 10 mL of an aqueous mixture of 1.25% (v/v) COC so that the final spray solutions contained 1.25% (v/v) COC.
All stock solutions and applications solutions were visually inspected for compound compatibility prior to application. Spray solutions were applied to the soil with an overhead Mandel track sprayer equipped with a 8002E nozzles calibrated to deliver 187 L/ha over an application area of 0.503 m^2 at a spray height of 18 inches (46 cm) above average pot height. Control pots were sprayed in the same manner with the solvent blank.
The treated and control pots were placed in a greenhouse and top watered as needed. When required to ensure good germination and healthy plants, a fungicide treatment and/or other chemical or physical treatment was applied. The pots were maintained in a greenhouse with an approximate 14 hr photoperiod which was maintained at about 29° C. during the day and 26° C. during the night. […] After approximately 4 weeks, the condition of the test plants as compared with that of the untreated plants was determined visually and scored on a scale of 0 to 100 percent where 0 corresponds to no injury or growth inhibition and 100 corresponds to complete kill. […]

For a further assay, the system named is LEFCH. The assay can be described thus: In-water applied weed control, transplanted paddy rice, greenhouse (Example II). The class given is in vivo, Leptochloa chinensis (L.) Nees.
A further assay relates to SETVI. The assay can be described thus: Pre-emergence soil-applied weed control, greenhouse (Example IV). The format is in vivo, Setaria viridis (L.) Beauv.
Text: as §1, §2, §3, §4
For treatments comprised of formulated compounds, measured amounts of compounds were placed individually in 25 mL glass vials and diluted in a volume of 1.25% (v/v) Agri-Dex® crop oil concentrate (COC) to obtain 12× stock solutions. […] Application solutions were prepared by adding an appropriate amount of each stock solution (e.g., 1 mL) and diluted to the appropriate final concentrations with the addition of 10 mL of an aqueous mixture of 1.25% (v/v) COC so that the final spray solutions contained 1.25% (v/v) COC. […]
The treated and control pots were placed in a greenhouse and top watered as needed. […] After approximately 4 weeks, the condition of the test plants as compared with that of the untreated plants was determined visually and scored on a scale of 0 to 100 percent where 0 corresponds to no injury or growth inhibition and 100 corresponds to complete kill. […]

For a further assay, the system named is ECHOR. The assay can be described thus: In-water applied weed control, transplanted paddy rice, greenhouse (Example II). The format is in vivo, Echinochloa oryzoides (Ard.) Fritsch.
The test system of another assay is IPOHE. The experiment in a line: Postemergence foliar-applied weed control, direct seeded rice, greenhouse (Example I). The following applies: g ae/ha Compound A Benzyl Ester+g ai/ha oxadiazon: r33 17.5+0, r34 0+250, r35 17.5+250. The format is in vivo, Ipomoea hederacea Jacq.

Consider `COc1c(Cl)ccc(-c2nc(C(=O)OCc3ccccc3)c(Cl)c(N)c2F)c1F` [Compound A Benzyl Ester, benzyl ester of 4-amino-3-chloro-5-fluoro-6-(4-chloro-2-fluoro-3-methoxy-phenyl)pyridine-2-carboxylic acid], for which the “Visual Weed Control (%) - 21 DAA ECHCG Obs” value stood at 55% in the assay on ECHCG (g ae/ha Compound A Benzyl Ester+g ai/ha carfentrazone-ethyl: r11 8.75+0, r12 0+3.5, r13 0+7, r14 0+14, r15 8.75+3.5, r16 8.75+7, r17 8.75+14) and 45% in the assay with ECHCG (g ae/ha Compound A Benzyl Ester+g ai/ha pyraflufen-ethyl: r11 8+0, r12 0+5.3, r13 0+10.6, r14 8+5.3, r15 8+10.6). Moreover, the “Visual Weed Control (%) - 23 DAA ECHCG Obs” value in the assay with ECHCG (g ae/ha Compound A Benzyl Ester+g ai/ha oxyfluorfen (SC): r25 4.38+0, r26 0+90, r27 0+180, r28 0+360, r29 4.38+90, r30 4.38+180, r31 4.38+360) stood at 40%. The results for the “Visual Weed Control (%) - 21 DAA PAPRH Obs” value in the assay with PAPRH (5 g ai/ha alone) and in the assay with PAPRH (10 g ai/ha alone) were 28% and 35%, respectively. In addition, the “Visual Weed Control (%) - 21 DAA SCPMA Obs” value in the assay on SCPMA (48 g ae/ha alone) and with SCPMA (96 g ae/ha alone) was 0% in each case. For the same compound, the “Visual Weed Control (%) - 29 DAA XANST Obs” value in the assay on XANST (16 g ae/ha alone) is 0%; in the assay with XANST (32 g ae/ha alone), 5%. In addition, the “Visual Weed Control (%) - 20 DAA LEFCH Obs” value in the assay on LEFCH (4.38 g ae/ha alone) was 0%; in the assay on LEFCH (8.75 g ae/ha alone), 20%; in the assay on LEFCH (17.5 g ae/ha alone) it was 30%. Moreover, the “Visual Weed Control (%) - 28 DAA SETVI Obs” value in the assay with SETVI (16 g ae/ha alone) and in the assay on SETVI (32 g ae/ha alone) was 10% in each case. In addition, the “Visual Weed Control (%) - 20 DAA ECHOR Obs” value worked out at 10% in the assay on ECHOR (4.38 g ae/ha alone) and 15% in the assay on ECHOR (8.75 g ae/ha alone). Moreover, the “Visual Weed Control (%) - 21 DAA ECHOR Obs” value is listed as 20% with ECHOR (8 g ae/ha alone); 25% with ECHOR (8.75 g ae/ha alone); 45% in the assay on ECHOR (16 g ae/ha alone); 60% with ECHOR (17.5 g ae/ha alone); 60% in the assay with ECHOR (32 g ae/ha alone). For the same compound, the “Visual Weed Control (%) - 21 DAA IPOHE Obs” value in the assay with IPOHE was 10%.
